From US10874610B2, “Extracellular vesicle-based diagnostics and engineered exosomes for targeted therapeutics against cancer” (Northwestern University, priority 2016, dated 2020)

Test system: BCSCs
Assay: Cellular internalization pathway of bioengineered exosomes using endocytic pathway inhibitors
Assay type: cell-based
Settings: BCSCs pretreated with inhibitor, then PKH67 labeled exosomes; microscopy and flow cytometry
Procedure: The mode of cellular internalization of the bioengineered exosomes was examined by using different endocytic pathway inhibitors. BCSCs were pretreated with different inhibitors including sucrose (inhibitor of clathrin-mediated endocytosis), amiloride (inhibitor of macropinocytosis), and filipin (inhibitor of caveolar uptake pathway), followed by the incubation with PKH67 labeled exosomes.

Row | SMILES | effect of inhibitor on cellular internalization of exosomes
1 | OC[C@H]1O[C@@](CO)(O[C@H]2O[C@H](CO)[C@@H](O)[C@H](O)[C@H]2O)[C@@H](O)[C@@H]1O [sucrose] | inhibited
2 | N=C(N)NC(=O)c1nc(Cl)c(N)nc1N [amiloride] | inhibited
